Test results published in PubChem BioAssay AID2060623 (Molecular Pharmacology Branch, DTP, NCI, 2025).

System: 227483-062-R1-J1-PDC complex spheroids with HUVEC/MSC, viability
Test: Anticancer human tumor 227483-062-R1-J1-PDC patient-derived pancreatic carcinoma cell line growth inhibition [CLK]
Conditions: for IC50: curve of first compound; for viability, T/C: stronger effect = lower value
From the text: A high-throughput screen of multi-cell type tumor spheroids was designed to identify active combinations of […] and targeted small molecules. Complex spheroids include a stromal component modeled by human endothelial cells (HUVEC) and fibroblasts modeled by human mesenchymal stem cells (MSCs). The concentration ranges selected for each drug and investigational agent were based upon clinically achievable concentrations if the clinical Cmax of the agent was known.
Compounds. The drugs and investigational agents: cirtuvivint (SM08502; NSC835563), CC-671 (NSC850746), vemurafenib (NSC761431), tapotoclax (NSC804041), sotorasib (NSC818433), adagrasib (NSC831453), MRTX-1133 (NSC836407), BAY2416964 (NSC825713), copanlisib (NSC816437), inavolisib (NSC800729), abemaciclib (NSC768073), osimertinib (NSC779217), entinostat (NSC756642), eltanexor (KPT-8602, NSC794443), venetoclax (NSC766270), ceralasertib (NSC777638), bortezomib (NSC756655), olaparib (NSC753686), talazoparib (NSC767125), alisertib (NSC759677), peposertib (NSC802822), gemcitabine (NSC613327), 5-fluorouracil (NSC19893), SN-38 (NSC673596), oxaliplatin (NSC266046), paclitaxel (NSC125973), and doxorubicin (NSC123127), were obtained from the National Cancer Institute (NCI) Developmental Therapeutics Program Chemical Repository. The FDA-approved anticancer drug set is available from the Developmental Therapeutics Program at https://dtp.cancer.gov/organization/dscb/obtaining/available plates.htm. […] The stock solutions were prepared in dimethyl sulfoxide (DMSO, Sigma-Aldrich, St. Louis, MO, cat. D2650), except for the platinum complexes which were prepared in saline (Quality Biological, Gaithersburg, MD, cat. 114-055-101), at 800-fold the tested concentration and stored at -70 degrees C prior to their use. All drugs and investigational agents were tested over a range starting from a high concentration at or near the clinical Cmax and decreasing in half-log increments. If the clinical Cmax for an agent had not been determined, the highest concentration tested was 10 microM.
Cell Culture. All cells were maintained in an incubator at 37 degrees C and 5% CO2 with 95% humidity. The PDC lines were cultured according to standard operating procedures established by the NCI PDMR. Briefly, all PDCs were thawed and cultured in Matrigel-coated flasks prepared with a working solution of 1X Ham's F-12 nutrient mix, without supplementation (Invitrogen, Waltham, MA, cat. 11765054), 100 U/mL penicillin-streptomycin (Invitrogen, cat. 15140122), and 2.5% Matrigel (Corning Inc., Corning, NY, cat. 354248) for the first three passages. The 947758-054-R-J2-PDC line was cultured in 6B/Colon 1A media, which includes advanced DMEM/F-12 (Thermo Fisher Scientific, cat. 12634028), 10 mM HEPES (Thermo Fisher Scientific, cat. 15630080), 1X GlutaMAX supplement (Thermo Fisher Scientific, cat. 35050061), 0.1 mg/mL primocin (InvivoGen, cat. ant-pm-2), 10% defined fetal bovine serum, heat inactivated (HyClone Laboratories Inc., cat. SH30070.03HI), 1.25 mM N-Acetyl-L-cysteine (Sigma-Aldrich, cat. A9165), 10 mM nicotinamide (Sigma-Aldrich, cat. N0636), 1X B-27 supplement (Thermo Fisher Scientific, cat. 17504044), 1X N-2 supplement (Thermo Fisher Scientific, cat. 17502048), and 10 microM Y-27632 dihydrochloride (Tocris Bioscience, cat. 1254). The 876862-298-R-J1-PDC was cultured in 6E media, which includes all 6B/Colon 1A media components plus 50% L-WRN conditioned media (ATCC, cat. CRL-3276), 50 ng/mL recombinant human EGF recombinant protein (hEGF; Thermo Fisher Scientific, cat. PHG0311), 10 ng/mL recombinant human fibroblast growth factor 10 (hGFG-10; PeproTech, cat. 100-26), 1 ng/mL recombinant human fibroblast growth factor 2 (hFGF-2; PeproTech, cat. 100-18B), and 1 µM prostaglandin E2 (PGE2; Tocris, cat. 2296). The 227483-062-R1-J1-PDC line was cultured in Panc media, containing all 6E components except hFGF-2, with the addition of 500 nM SB-431542 (Selleckchem, cat. S1067) and 10 nM gastrin (Tocris, cat. 3006). […]

[1] = second compound 0.0316 µM, first compound 0.0316 µM
[2] = second compound 0.0316 µM, first compound 0.1 µM
[3] = second compound 0.0316 µM, first compound 0.316 µM
[4] = second compound 0.0316 µM, first compound 1 µM
[5] = second compound 0.0316 µM, first compound 3.16 µM
[6] = second compound 0.0316 µM, first compound 10 µM
[7] = second compound 0.1 µM, first compound 0.0316 µM
[8] = second compound 0.1 µM, first compound 0.1 µM
[9] = second compound 0.1 µM, first compound 0.316 µM
[10] = second compound 0.1 µM, first compound 1 µM
[11] = second compound 0.1 µM, first compound 3.16 µM
[12] = second compound 0.1 µM, first compound 10 µM
[13] = second compound 0.316 µM, first compound 0.0316 µM
[14] = second compound 0.316 µM, first compound 0.1 µM
[15] = second compound 0.316 µM, first compound 0.316 µM
[16] = second compound 0.316 µM, first compound 1 µM
[17] = second compound 0.316 µM, first compound 3.16 µM
[18] = second compound 0.316 µM, first compound 10 µM
[19] = second compound 1 µM, first compound 0.0316 µM
[20] = second compound 1 µM, first compound 0.1 µM
[21] = second compound 1 µM, first compound 0.316 µM
[22] = second compound 1 µM, first compound 1 µM
[23] = second compound 1 µM, first compound 3.16 µM
[24] = second compound 1 µM, first compound 10 µM
[25] = second compound 3.16 µM, first compound 0.0316 µM
[26] = second compound 3.16 µM, first compound 0.1 µM
[27] = second compound 3.16 µM, first compound 0.316 µM
[28] = second compound 3.16 µM, first compound 1 µM
[29] = second compound 3.16 µM, first compound 3.16 µM
[30] = second compound 3.16 µM, first compound 10 µM
[31] = second compound 10 µM, first compound 0.0316 µM
[32] = second compound 10 µM, first compound 0.1 µM
[33] = second compound 10 µM, first compound 0.316 µM
[34] = second compound 10 µM, first compound 1 µM
[35] = second compound 10 µM, first compound 3.16 µM
[36] = second compound 10 µM, first compound 10 µM
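Further: spheroids exposed to compounds for seven days before readout.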
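Wherever viability, T/C is given: percent of DMSO vehicle control luminescence as 100% viability.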

## CCCS(=O)(=O)Nc1ccc(F)c(C(=O)c2c[nH]c3ncc(-c4ccc(Cl)cc4)cc23)c1F + CN1CCN(c2cc(C(=O)Nc3cc4cc(-c5cnn(C)c5)ccc4cn3)ccn2)CC1
Second compound 0.0316 µM
  IC50: > 10000 nM
Second compound 0.1 µM
  IC50: 5270 nM
Second compound 0.316 µM
  IC50: < 31.6 nM
Second compound 1 µM
  IC50: < 31.6 nM
Second compound 3.16 µM
  IC50: < 31.6 nM
Second compound 10 µM
  IC50: < 31.6 nM
[1]
  viability, T/C: 115%
[2]
  viability, T/C: 98%
[3]
  viability, T/C: 92.6%
[4]
  viability, T/C: 111%
[5]
  viability, T/C: 113%
[6]
  viability, T/C: 98.8%
[7]
  viability, T/C: 59.5%
[8]
  viability, T/C: 63.6%
[9]
  viability, T/C: 62.2%
[10]
  viability, T/C: 95.5%
[11]
  viability, T/C: 57.5%
[12]
  viability, T/C: 32.8%
[13]
  viability, T/C: 5.7%
[14]
  viability, T/C: 6.53%
[15]
  viability, T/C: 5.51%
[16]
  viability, T/C: 4.08%
[17]
  viability, T/C: 8.45%
[18]
  viability, T/C: 5.43%
[19]
  viability, T/C: 4.51%
[20]
  viability, T/C: 1.83%
[21]
  viability, T/C: 3.28%
[22]
  viability, T/C: 1.8%
[23]
  viability, T/C: 2.28%
[24]
  viability, T/C: 2.25%
[25]
  viability, T/C: 3.73%
[26]
  viability, T/C: 4.36%
[27]
  viability, T/C: 3.99%
[28]
  viability, T/C: 4.7%
[29]
  viability, T/C: 5.81%
[30]
  viability, T/C: 4.4%
[31]
  viability, T/C: 4.02%
[32]
  viability, T/C: 2.72%
[33]
  viability, T/C: 2.7%
[34]
  viability, T/C: 3.39%
[35]
  viability, T/C: 3.28%
[36]
  viability, T/C: 2.76%

## COC1C=CCC(C)C(C)S(=O)(=O)NC(=O)c2ccc3c(c2)N(CC2CCC21)CC1(CCCc2cc(Cl)ccc21)CO3 (centres undefined) + CN1CCN(c2cc(C(=O)Nc3cc4cc(-c5cnn(C)c5)ccc4cn3)ccn2)CC1
Second compound 0.0316 µM
  IC50: 5880 nM
Second compound 0.1 µM
  IC50: 306 nM
Second compound 0.316 µM
  IC50: < 31.6 nM
Second compound 1 µM
  IC50: < 31.6 nM
Second compound 3.16 µM
  IC50: < 31.6 nM
Second compound 10 µM
  IC50: < 31.6 nM
[1]
  viability, T/C: 94.5%
[2]
  viability, T/C: 89.8%
[3]
  viability, T/C: 109%
[4]
  viability, T/C: 87.1%
[5]
  viability, T/C: 82.4%
[6]
  viability, T/C: 23.2%
[7]
  viability, T/C: 74.2%
[8]
  viability, T/C: 77.4%
[9]
  viability, T/C: 45.6%
[10]
  viability, T/C: 25.9%
[11]
  viability, T/C: 14.9%
[12]
  viability, T/C: 9.47%
[13]
  viability, T/C: 5.64%
[14]
  viability, T/C: 6.22%
[15]
  viability, T/C: 4.57%
[16]
  viability, T/C: 5.41%
[17]
  viability, T/C: 4.64%
[18]
  viability, T/C: 2.38%
[19]
  viability, T/C: 1.87%
[20]
  viability, T/C: 1.41%
[21]
  viability, T/C: 1.74%
[22]
  viability, T/C: 2.02%
[23]
  viability, T/C: 3.06%
[24]
  viability, T/C: 3.77%
[25]
  viability, T/C: 4.46%
[26]
  viability, T/C: 3.64%
[27]
  viability, T/C: 3.99%
[28]
  viability, T/C: 2.73%
[29]
  viability, T/C: 2.81%
[30]
  viability, T/C: 1.89%
[31]
  viability, T/C: 4.15%
[32]
  viability, T/C: 2.18%
[33]
  viability, T/C: 2.3%
[34]
  viability, T/C: 2.91%
[35]
  viability, T/C: 2.23%
[36]
  viability, T/C: 1.54%
